Data from patent US20220079899A1, “COMPOSITIONS AND METHODS FOR TREATING OCULAR CONDITIONS” (The Regents of the University of California, priority 2019, published 2022).

System: calcification in injured hearts of ABCC6-deficient mice
Assay: Calcification after heart injury in a mouse model of PXE
Assay type: in vivo
Settings: intraperitoneally 1 mcg/daily for 7 days, versus vehicle
Description: FIGS. 1A and 1B show calcification in injured hearts in a mouse model of PXE treated with vehicle (A) or ARL67156 (B).
ENPP1 inhibitors attenuate calcification in a mouse model of PXE. Mice genetically deficient in ABCC6 (the causative gene in PXE) were subjected to heart injury, and either (A) vehicle or (B) ARL67156 was administered (intraperitoneally 1 mcg/daily) for 7 days.

Compound: CCN(CC)c1ncnc2c1ncn2[C@@H]1O[C@H](COP(=O)(O)OP(=O)(O)C(Br)(Br)P(=O)(O)O)[C@@H](O)[C@H]1O [ARL67156]
- calcification in the injured region: significant attenuation of calcification
